{
  "source": "paper PMC9011347",
  "about": "“Small-Molecule Inhibitors Targeting Lipolysis in Human Adipocytes” (Journal of the American Chemical Society, 2022)",
  "system": "HepG2^AKO cells",
  "test": "Seahorse cellular respiration (OCR) in ATGL knockout cells",
  "assay_type": "cell-based, human",
  "conditions": "NG-497 40 μM, galactose medium",
  "protocol": "(a) HepG2 cells were treated with NG-497 (40 μM) or DMSO as control and oxygen consumption rate (OCR) was determined in Seahorse growth medium supplemented with glucose (25 mM) using the SeaHorse XF96 extracellular flux analyzer. OCR was determined after subsequent addition of 1 μM Oligomycin (ATP-synthase inhibitor), 1 μM FCCP (uncoupler), and 1 μM antimycin/rotenone (electron transport chain inhibitors). (b) Statistical analysis of basal respiration (BR), maximal respiration (MR), proton leak (PL), ATP production (ATPP), spare respiratory capacity (SRC), and nonmitochondrial oxygen consumption (NMOC) of control and NG-497-treated cells. (c) Extracellular acidification rate (ECAR) and (d) OCR of HepG2 cells were determined in Seahorse growth medium supplemented with glucose (25 mM) or galactose (10 mM). […] Growth of cells expressing (HepG2^control) or lacking functional ATGL (HepG2^AKO) was determined using a BioRad cell analyzer. ATGL expression was analyzed by Western blotting analysis using an anti-ATGL antibody and GAPDH as a loading control (inset). (h) Acylglycerol content of HepG2^control and HepG2^AKO cells was determined by a commercial kit (TG Infinity reagent, Thermo Fisher Scientific). […] Statistical significance was determined via Student’s t test (*p < 0.05; **p < 0.01; ***p < 0.001) or ANOVA followed by Bonferroni post hoc test (^#p < 0.05; ^##p < 0.01; ^###p < 0.001). […]",
  "data": [
    {"smiles": "CCOc1ccc(-c2cc(OC)cc(C(=O)OC(C)C)n2)cc1", "note": "[NG-497]", "values": [
      {"measurement": "effect on respiration", "value": "no effect on respiration"}
    ]}
  ]
}
